This note sets out measurements from patent EP4477653A1 (Perha Pharmaceuticals, priority 2023, dated 2024).

Each structure is given as a SMILES string. Like-named read-outs stand apart in the source and are kept apart here. A value given as a limit tells only on which side of the number the result lay.

One data set can be described thus: LogD (HPLC). Particulars: by HPLC; Table 2. In kind it is physicochemical.
Data set [1] deals with T1, human recombinant A3AR (expressed in HEK-293 cells) (Homo sapiens, UniProt P0DMS8).
T1 construct: host or cells: HEK-293 cells
T1 sequence (P0DMS8 1-318): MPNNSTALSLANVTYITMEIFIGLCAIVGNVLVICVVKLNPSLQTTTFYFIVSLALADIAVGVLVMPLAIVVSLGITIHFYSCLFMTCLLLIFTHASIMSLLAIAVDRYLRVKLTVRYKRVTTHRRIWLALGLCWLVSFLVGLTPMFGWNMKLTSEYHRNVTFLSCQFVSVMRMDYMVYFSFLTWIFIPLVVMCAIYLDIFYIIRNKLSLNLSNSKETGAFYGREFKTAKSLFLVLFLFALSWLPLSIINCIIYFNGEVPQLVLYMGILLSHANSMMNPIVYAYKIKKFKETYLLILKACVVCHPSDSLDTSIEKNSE
The experiment in a line: Adenosine receptors antagonism assay (Eurofins), [125I]-AB-MECA radioligand competition. In kind it is binding.
Experimental: Assays were carried out at r.t. for 120 min. Compounds were initially tested at three concentrations (0.01, 0.1, 1 µM). […] IC50 values, which is the concentration causing a half-maximal inhibition of control specific binding, and Hill coefficients (nH) were determined by non-linear regression analysis of the competition curves generated with mean replicate values using Hill equation curve fitting. The inhibition constants (Ki) were calculated using the Cheng Prusoff equation.

Setting [2] is: [125I]-AB-MECA 0.15 nM, r.t., 120 min; IC50 from dose-response curves; read-out: Potency Class A3AR.
The mark [3] stands for this setting: read-out: Potency Class A3AR; [125I]-AB-MECA 0.15 nM, r.t., 120 min; IC50 from dose-response curves.

As for `CC(C)c1nnc2c(NCc3ccccc3)cc(NCC3CC3)nn12` [compound 122, N8-benzyl-N6-(cyclopropylmethyl)-3-isopropyl-[1,2,4]triazolo[4,3-b]pyridazine-6,8-diamine], the chromatographic logD in “LogD (HPLC)” was 3.33. Moreover, the IC50 in data set [1] (setting [2]) fell in the range of 10 to 100 nM.

`CC(C)c1nnc2c(NCc3ccccc3)cc(N[C@H]3CC[C@H](O)CC3)nn12` [(135), racemic trans-4-[[8-(benzylamino)-3-isopropyl-[1,2,4]triazolo[4,3-b]pyridazin-6-yl]amino]cyclohexanol] registered a chromatographic logD in the data set “LogD (HPLC)” of 2.22.

In turn, `Cc1cc(C)cc(CNc2cc(NCc3ccccc3)c3nnc(C(C)C)n3n2)c1` [compound 141, N8-benzyl-N6-[(3,5-dimethylphenyl)methyl]-3-isopropyl-[1,2,4]triazolo[4,3-b]pyridazine-6,8-diamine] had a chromatographic logD in the data set “LogD (HPLC)” of 4.2. Moreover, in data set [1] (setting [2]), the IC50 was 100 to 1000 nM.

On to `CCC(CC)CNc1cc(NCc2ccccc2)c2nnc(C(C)C)n2n1` [compound 126, N8-benzyl-N6-(2-ethylbutyl)-3-isopropyl-[1,2,4]triazolo[4,3-b]pyridazine-6,8-diamine], for which, in the data set “LogD (HPLC)”, the chromatographic logD was found to be 4.42. In addition, the IC50 in data set [1] (setting [2]) was 1 to 10 nM.

With `CC(C)c1nnc2c(NCc3ccccc3)cc(NCc3cccnc3)nn12` [compound 132, N8-benzyl-3-isopropyl-N6-(3-pyridylmethyl)-[1,2,4]triazolo[4,3-b]pyridazine-6,8-diamine], in “LogD (HPLC)”, the chromatographic logD stood at 2.36. Moreover, the IC50 in data set [1] (setting [2]) was in the range of 10 to 100 nM.

In the case of `CC(C)c1nnc2c(NCc3ccccc3)cc(NCC3CCCCC3)nn12` [compound 124, N8-benzyl-N6-(cyclohexylmethyl)-3-isopropyl-[1,2,4]triazolo[4,3-b]pyridazine-6,8-diamine], in “LogD (HPLC)”, the chromatographic logD was 4.6. In addition, in data set [1] (setting [2]), the IC50 fell in the range of 10 to 100 nM.

`CC(C)c1nnc2c(NCc3ccccc3)cc(NCC3CCC3)nn12` [compound 123] came in with a chromatographic logD in “LogD (HPLC)” of 3.86. Also, in data set [1] (setting [3]), the IC50 fell in the range of 10 to 100 nM.

Turning to `CC(C)c1nnc2c(NCc3ccccc3)cc(NCC3CCOCC3)nn12` [compound 125, N8-benzyl-3-isopropyl-N6-(tetrahydropyran-4-ylmethyl)-[1,2,4]triazolo[4,3-b]pyridazine-6,8-diamine], the chromatographic logD in “LogD (HPLC)” was determined as 2.74. The IC50 in data set [1] (setting [2]) fell in the range of 100 to 1000 nM.

Take `CC(C)c1nnc2c(NCc3ccccc3)cc(NCC3(C)CCCCC3)nn12` [compound 136]: the chromatographic logD in “LogD (HPLC)” was 4.88. For the same molecule, the IC50 in data set [1] (setting [3]) is 10 to 100 nM.

Molecule `CC(C)c1nnc2c(NCc3ccccc3)cc(NC3CCCCCC3)nn12` [compound 121, N8-benzyl-N6-cycloheptyl-3-isopropyl-[1,2,4]triazolo[4,3-b]pyridazine-6,8-diamine] came in with a chromatographic logD in “LogD (HPLC)” of 4.57. For the same molecule, the IC50 in data set [1] (setting [2]) lay within 10 to 100 nM.

In turn, `CC(C)c1nnc2c(NCc3ccccc3)cc(NCCc3ccccc3)nn12` [compound 127, N8-benzyl-3-isopropyl-N6-(2-phenylethyl)-[1,2,4]triazolo[4,3-b]pyridazine-6,8-diamine] came in with a chromatographic logD in “LogD (HPLC)” of 3.78. Also, the IC50 in data set [1] (setting [2]) is 10 to 100 nM.

On to `Cc1cnc(CNc2cc(NCc3ccccc3)c3nnc(C(C)C)n3n2)cn1` [compound 139, N8-benzyl-3-isopropyl-N6-[(5-methylpyrazin-2-yl)methyl]-[1,2,4]triazolo[4,3-b]pyridazine-6,8-diamine], for which the chromatographic logD in the data set “LogD (HPLC)” came out at 2.3. Also, in data set [1] (setting [2]), the IC50 was 100 to 1000 nM.

Regarding `COC1CCC(Nc2cc(NCc3ccccc3)c3nnc(C(C)C)n3n2)CC1` (racemic) [compound 120, N8-benzyl-3-isopropyl-N6-(4-methoxycyclohexyl)-[1,2,4]triazolo[4,3-b]pyridazine-6,8-diamine], the chromatographic logD in the data set “LogD (HPLC)” was 3.09. In data set [1] (setting [2]), the IC50 was in the range of 100 to 1000 nM.

For `CCC(CC)Nc1cc(NCc2ccccn2)c2nnc(C3CCCC3)n2n1` [compound 64, 3-cyclopentyl-N6-(1-ethylpropyl)-N8-(2-pyridylmethyl)-[1,2,4]triazolo[4,3-b]pyridazine-6,8-diamine], the IC50 in data set [1] (setting [2]) fell in the range of 10 to 100 nM.

For the molecule `CCC(CC)Nc1cc(NCc2ccccc2N)c2nnc(C(C)C)n2n1` [compound 77, N8-[(2-aminophenyl)methyl]-N6-(1-ethylpropyl)-3-isopropyl-[1,2,4]triazolo[4,3-b]pyridazine-6,8-diamine], the IC50 in data set [1] (setting [2]) is 10 to 100 nM.

Turning to `c1ccc(CNc2cc(NCc3ccco3)nn3c(C4CC4)nnc23)nc1` [compound 208, 3-cyclopropyl-N6-(furan-2-ylmethyl)-N8-(pyridin-2-ylmethyl)-[1,2,4]triazolo[4,3-b]pyridazine-6,8-diamine], the IC50 in data set [1] (setting [2]) lay in the range of 1 to 10 nM.

Turning to `CCC(CC)Nc1cc(NCc2ccccn2)c2nnc(C(C)(C)C)n2n1` [compound 61, 3-tert-butyl-N6-(1-ethylpropyl)-N8-(2-pyridylmethyl)-[1,2,4]triazolo[4,3-b]pyridazine-6,8-diamine], the IC50 in data set [1] (setting [2]) lay within 10 to 100 nM.

Consider `COc1ccc(CNc2cc(NCc3ccccn3)c3nnc(C4CC4)n3n2)cc1` [compound 187, 3-cyclopropyl-N6-(4-methoxybenzyl)-N8-(pyridin-2-ylmethyl)-[1,2,4]triazolo[4,3-b]pyridazine-6,8-diamine], for which, in data set [1] (setting [2]), the IC50 was 1 to 10 nM.

`CC(C)c1nnc2c(NCc3ccccc3)cc(N[C@@H]3CCOC3)nn12` [compound 19, N8-benzyl-3-isopropyl-N6-[(3R)-tetrahydrofuran-3-yl]-[1,2,4]triazolo[4,3-b]pyridazine-6,8-diamine]: the IC50 in data set [1] (setting [2]) lay in the range of 10 to 100 nM.

As for `CCC(CC)Nc1cc(Nc2ccccc2)c2nnc(C3CC3)n2n1` [compound 171, 3-cyclopropyl-N6-(1-ethylpropyl)-N8-phenyl-[1,2,4]triazolo[4,3-b]pyridazine-6,8-diamine], the IC50 in data set [1] (setting [2]) was less than 1 nM.

`CC[C@@H](CO)Nc1cc(NCc2ccc(Br)cc2)c2nnc(C(C)C)n2n1` [compound 101, (2S)-2-[[8-[(4-bromophenyl)methylamino]-3-isopropyl-[1,2,4]triazolo[4,3-b]pyridazin-6-yl]amino]butan-1-o1]: in data set [1] (setting [2]), the IC50 lay within 10 to 100 nM.

With `CCC(CC)Nc1cc(NCc2ccccc2O)c2nnc(C(C)C)n2n1` [compound 40, 2-[[[6-(1-ethylpropylamino)-3-isopropyl-[1,2,4]triazolo[4,3-b]pyridazin-8-yl]amino]methyl]phenol], in data set [1] (setting [2]), the IC50 lay within 1 to 10 nM.

For `CCC(CC)Nc1cc(Nc2ncccn2)c2nnc(C3CC3)n2n1` [compound 179, 3-cyclopropyl-N6-(pentan-3-yl)-N8-(pyrimidin-2-yl)-[1,2,4]triazolo[4,3-b]pyridazine-6,8-diamine], the IC50 in data set [1] (setting [2]) was in the range of 10 to 100 nM.

As for `CC[C@@H](CO)Nc1cc(NCc2ccccn2)c2nnc(C3CC3)n2n1` [compound 212, (S)-2-((3-cyclopropyl-8-((pyridin-2-ylmethyl)amino)-[1,2,4]triazolo[4,3-b]pyridazin-6-yl)amino)butan-1-ol], the IC50 in data set [1] (setting [2]) fell in the range of 10 to 100 nM.

`CCC(CC)Nc1cc(Nc2ccc(OC)nn2)c2nnc(C3CC3)n2n1` [compound 215, 3-cyclopropyl-N8-(6-methoxypyridazin-3-yl)-N6-(pentan-3-yl)-[1,2,4]triazolo[4,3-b]pyridazine-6,8-diamine]: the IC50 in data set [1] (setting [2]) is less than 1 nM.

Turning to `CCC(CC)Nc1cc(Nc2ccccn2)c2nnc(C3CC3)n2n1` [compound 172, 3-cyclopropyl-N6-(1-ethylpropyl)-N8-(2-pyridyl)-[1,2,4]triazolo[4,3-b]pyridazine-6,8-diamine], the IC50 in data set [1] (setting [2]) was less than 1 nM.
